Data from patent publication US20160264570A1, “METHOD OF BLOCKING TRANSMISSION OF MALARIAL PARASITE” (THE UNITED STATES OF AMERICA, AS REPRESENTED BY THE …, priority 2013, published 2016).
Where two headings read alike, the source gives them in different places.

Key:
[1] = test system: P. falciparum strain 3D7 gametocytes; assay: alamarBlue gametocyte viability assay, strain 3D7
[2] = test system: Asexual parasites of P. falciparum strain 3D7; assay: SYBR Green viability assay on asexual parasites; assay type: cell-based, Plasmodium falciparum; settings: read-out: Activity against asexual parasites EC50
[3] = test system: HepG2 cells; assay: Cytotoxicity in mammalian HepG2 cell line; settings: for % Max response: HepG2; for IC50 (μM) in HepG2 cells / IC50 (μM) in HepG2: Inactive = no significant activity at highest tested concentration (46 μM)
[4] = read-out: Gametocytocidal activity EC50, Table 6
[5] = Plasmodium falciparum, 3D7, read-out: Gametocytocidal activity EC50, Table 7
[6] = Plasmodium falciparum, 3D7, Table 7
[7] = Plasmodium falciparum, 3D7, read-out: Gametocytocidal activity EC50, Table 8
[8] = Plasmodium falciparum, 3D7, Table 8
[9] = Plasmodium falciparum, 3D7, read-out: 3D7-IC50
[10] = Homo sapiens, HepG2, read-out: IC50 (μM) in HepG2 cells
[11] = read-out: Gametocyte IC50, mean of at least 3 independent experiments, P. falciparum 3D7 gametocyte
[12] = Plasmodium falciparum, 3D7, read-out: Gametocyte IC50
[13] = Plasmodium falciparum, 3D7, read-out: IC50 against gametocytes

O=c1ccc2cnc3ccc(-c4ccc(-c5nnn[nH]5)cc4)cc3c2n1-c1cccc(C(F)(F)F)c1
EC50 [1, 4]: 20900 nM
EC50 ([2]; Table 6): > 20000 nM

O=c1ccc2cnc3ccc(-c4ccc(Cl)cc4)cc3c2n1-c1cccc(C(F)(F)F)c1
EC50 [1, 4]: 673 nM
EC50 ([2]; Table 6): 253 nM

COc1ccc(-c2ccc3ncc4ccc(=O)n(-c5cccc(C(F)(F)F)c5)c4c3c2)cc1
EC50 [1, 4]: 3240 nM
EC50 ([2]; Table 6): 2460 nM

CC(=O)c1cccc(-c2ccc3ncc4ccc(=O)n(-c5cccc(C(F)(F)F)c5)c4c3c2)c1
EC50 [1, 4]: 1240 nM
EC50 ([2]; Table 6): 352 nM

O=c1ccc2cnc3ccc(-c4ccc5c(c4)OCC5)cc3c2n1-c1cccc(C(F)(F)F)c1
EC50 [1, 4]: 3310 nM
EC50 ([2]; Table 6): 2240 nM

Cn1ccc2cc(-c3ccc4ncc5ccc(=O)n(-c6cccc(C(F)(F)F)c6)c5c4c3)ccc21
EC50 [1, 4]: 3260 nM
EC50 ([2]; Table 6): 2090 nM

O=c1ccc2cnc3ccc(-c4ccc5c(c4)OCO5)cc3c2n1-c1cccc(C(F)(F)F)c1
EC50 [1, 4]: 3130 nM
EC50 ([2]; Table 6): 802 nM

O=c1ccc2cnc3ccc(-c4ccc(F)cc4)cc3c2n1-c1cccc(C(F)(F)F)c1
EC50 [1, 4]: 2660 nM
EC50 ([2]; Table 6): 580 nM

O=c1ccc2cnc3ccc(-c4ccc(O)cc4)cc3c2n1-c1cccc(C(F)(F)F)c1
EC50 [1, 4]: 165 nM
EC50 ([2]; Table 6): 129 nM

Cc1ccc(-c2ccc3ncc4[nH]c(=O)n(-c5cccc(C(F)(F)F)c5)c4c3c2)cn1
EC50 [1, 5]: 443 nM
EC50 [2, 6]: 59 nM

Nc1ccc(-c2ccc3ncc4[nH]c(=O)n(-c5cccc(C(F)(F)F)c5)c4c3c2)cc1
EC50 [1, 5]: 630 nM
EC50 [2, 6]: 153 nM

CC(=O)Nc1ccc(-c2ccc3ncc4[nH]c(=O)n(-c5cccc(C(F)(F)F)c5)c4c3c2)cn1
EC50 [1, 5]: 123 nM
EC50 [2, 6]: 35 nM

O=c1[nH]c2cnc3ccc(-c4ccc(O)cc4)cc3c2n1-c1cccc(C(F)(F)F)c1
EC50 [1, 5]: 1420 nM
EC50 [2, 6]: 398 nM

Nc1cccc(-c2ccc3ncc4[nH]c(=O)n(-c5cccc(C(F)(F)F)c5)c4c3c2)c1
EC50 [1, 5]: 531 nM
EC50 [2, 6]: 137 nM

O=c1[nH]c2cnc3ccc(-c4ccncc4)cc3c2n1-c1cccc(C(F)(F)F)c1
EC50 [1, 5]: 1240 nM
EC50 [2, 6]: 211 nM

O=c1[nH]c2cnc3ccc(-c4ccc5[nH]cnc5c4)cc3c2n1-c1cccc(C(F)(F)F)c1
EC50 [1, 5]: 543 nM
EC50 [2, 6]: 90 nM

CS(=O)(=O)c1ccc(-c2ccc3ncc4[nH]c(=O)n(-c5cccc(C(F)(F)F)c5)c4c3c2)cc1
EC50 [1, 5]: 2050 nM
EC50 [2, 6]: 622 nM

O=c1[nH]c2cnc3ccc(-c4cnc5ccccc5c4)cc3c2n1-c1cccc(C(F)(F)F)c1
EC50 [1, 5]: 212000 nM
EC50 [2, 6]: 5780 nM

Nc1ncc(-c2ccc3ncc4[nH]c(=O)n(-c5cccc(C(F)(F)F)c5)c4c3c2)cn1
EC50 [1, 5]: 246 nM
EC50 [2, 6]: 57 nM

Cn1c(=O)n(-c2cccc(C(F)(F)F)c2)c2c3cc(-c4cccc(N)c4)ccc3ncc21
EC50 [1, 5]: 69 nM
EC50 [2, 6]: 16 nM

O=c1[nH]c2cnc3ccc(-c4cccnc4)cc3c2n1-c1cccc(C(F)(F)F)c1
EC50 [1, 5]: 5570 nM
EC50 [2, 6]: 1400 nM

NC(=O)c1ccc(-c2ccc3ncc4[nH]c(=O)n(-c5cccc(C(F)(F)F)c5)c4c3c2)cc1
EC50 [1, 5]: 227 nM
EC50 [2, 6]: 45 nM

Cn1c(=O)n(-c2cccc(C(F)(F)F)c2)c2c3cc(-c4ccc(N)cc4)ccc3ncc21
EC50 [1, 5]: 69 nM
EC50 [2, 6]: 16 nM

Cn1c(=O)n(-c2cccc(C(F)(F)F)c2)c2c3cc(-c4ccc(C(N)=O)cc4)ccc3ncc21
EC50 [1, 5]: 109 nM
EC50 [2, 6]: 20 nM

Cn1c(=O)n(-c2cccc(C(F)(F)F)c2)c2c3cc(-c4ccc(C(N)=O)nc4)ccc3ncc21
EC50 [1, 5]: 43 nM
EC50 [2, 6]: 8 nM

Cn1c(=O)n(-c2cccc(C(F)(F)F)c2)c2c3cc(-c4cnc(N)nc4)ccc3ncc21
EC50 [1, 5]: 31 nM
EC50 [2, 6]: 7 nM

Nc1ccc(-c2ccc3ncc4[nH]c(=O)n(-c5cccc(C(F)(F)F)c5)c4c3c2)cn1
EC50 [1, 5]: 88 nM
EC50 [2, 6]: 105 nM

Cc1cc2cnc3ccc(-c4ccc(N)nc4)cc3c2n(-c2cccc(C(F)(F)F)c2)c1=O
EC50 [1, 7]: 46 nM
EC50 [2, 8]: 205 nM

CCc1cc2cnc3ccc(-c4ccc(N)nc4)cc3c2n(-c2cccc(C(F)(F)F)c2)c1=O
EC50 [1, 7]: 136 nM
EC50 [2, 8]: 260 nM

COc1cccc2c1C(=O)c1c(O)c3c(c(O)c1C2=O)C[C@@](O)(C(=O)CO)C[C@@H]3O[C@H]1C[C@H](N)[C@H](O)[C@H](C)O1 [Adriamycin]
IC50 [1, 9]: 526 nM
% Max response ([3]; Table 4): −35%
IC50 (μM) in HepG2 cells ([3]; Table 4): Inactive

CN(C)C/C=C/C(=O)Nc1cc2c(Nc3ccc(F)c(Cl)c3)ncnc2cc1O[C@H]1CCOC1 [Afatinib]
IC50 [1, 9]: 935 nM
IC50 [3, 10]: 18.7 µM
% Max response ([3]; Table 4): −100%

CO[C@H]1/C=C\C=C(/C)C(=O)NC2=CC(=O)C(NCCN(C)C)=C(C[C@@H](C)C[C@H](OC)[C@H](O)[C@@H](C)/C=C(\C)[C@@H]1OC(N)=O)C2=O [Alvespimycin]
IC50 [3, 10]: 0.118 µM
% Max response ([3]; Table 4): −94%

CO[C@H]1O[C@@H]2O[C@@]3(C)CC[C@H]4[C@H](C)CC[C@@H]([C@H]1C)[C@@]24OO3 [Artemether]
% Max response ([3]; Table 4): 7%
IC50 (μM) in HepG2 cells ([3]; Table 4): Inactive

C[C@@H]1CC[C@H]2[C@@H](C)C(=O)O[C@@H]3O[C@@]4(C)CC[C@@H]1[C@]32OO4 [Artemisinin, artemisinin]
IC50 [1, 9]: 100 nM
% Max response ([3]; Table 4): 18%
IC50 (μM) in HepG2 cells ([3]; Table 4): Inactive

C[C@H]1[C@@H](O)O[C@@H]2O[C@@]3(C)CC[C@H]4[C@H](C)CC[C@@H]1[C@@]24OO3 [Artenimol (DHA)]
IC50 [1, 11]: 77 nM
% Max response ([3]; Table 2): 20%
IC50 (μM) in HepG2 ([3]; Table 2): Inactive
% Max response ([3]; Table 4): 20%
IC50 (μM) in HepG2 cells ([3]; Table 4): Inactive

C[C@H]1[C@H](OC(=O)CCC(=O)O)O[C@@H]2O[C@@]3(C)CC[C@H]4[C@H](C)CC[C@@H]1[C@@]24OO3 [Artesunate]
% Max response ([3]; Table 4): 18%
IC50 (μM) in HepG2 cells ([3]; Table 4): Inactive

CC(C)C[C@H](NC(=O)[C@H](Cc1ccccc1)NC(=O)c1cnccn1)B(O)O [Bortezomib]
IC50 [1, 9]: 100 nM
IC50 [3, 10]: 0.148 µM
% Max response ([3]; Table 4): −82%

CC(C)C[C@H](NC(=O)[C@H](CCc1ccccc1)NC(=O)CN1CCOCC1)C(=O)N[C@@H](Cc1ccccc1)C(=O)N[C@@H](CC(C)C)C(=O)[C@@]1(C)CO1 [Carfilzomib]
IC50 [3, 10]: 1.18 µM
% Max response ([3]; Table 4): −79%

S=C(SSC(=S)N1CCCCC1)N1CCCCC1 [Dicyclopentamethylene-thiuram disulfide, reference compound]
IC50 [1, 12]: 274 nM

S=C(SSC(=S)N1CCCCC1)N1CCCCC1 [Dicyclopentamethylenethiram disulfide]
% Max response ([3]; Table 2): 0%
IC50 (μM) in HepG2 ([3]; Table 2): Inactive
% Max response ([3]; Table 4): 0%
IC50 (μM) in HepG2 cells ([3]; Table 4): Inactive

c1ccc2c(c1)[I+]c1ccccc1-2 [Diphenyleneiodonium]
IC50 [1, 9]: 100 nM

[O-][n+]1ccccc1SSc1cccc[n+]1[O-] [Dipyrithione]
IC50 [1, 9]: 200 nM
IC50 [3, 10]: 10.8 µM
% Max response ([3]; Table 4): −93%

CN(NC(=O)CC(=O)NN(C)C(=S)c1ccccc1)C(=S)c1ccccc1 [Elesclomol, elesclomol, reference compound]
IC50 [1, 12]: 6 nM

CO[C@@H]1[C@@H](OC)[C@H](C)[C@@](O)(CC(=O)O)O[C@H]1[C@H](C)[C@H]1O[C@@]2(CC[C@@](C)([C@H]3CC[C@@](C)([C@@H]4O[C@@H]([C@H]5O[C@](C)(O)[C@H](C)C[C@@H]5C)C[C@@H]4O[C@@H]4C[C@H](OC)[C@@H](OC)[C@H](C)O4)O3)O2)C[C@H](O)[C@H]1C [Maduramicin]
IC50 [1, 12]: 47 nM
IC50 [1, 13]: 3 to 50 nM
Emax ([3]; Homo sapiens, HepG2, read-out: % Max response): -42%
IC50 ([3]; Homo sapiens, HepG2, read-out: IC50 (μM) in HepG2): 37.2 µM
IC50 [3, 10]: 37.2 µM

OC(c1cc(C(F)(F)F)nc2c(C(F)(F)F)cccc12)C1CCCCN1 (stereo not shown) [Mefloquine, mefloquine]
IC50 [3, 10]: 29.6 µM
% Max response ([3]; Table 4): −97%

CCNC(=O)c1noc(-c2cc(C(C)C)c(O)cc2O)c1-c1ccc(CN2CCOCC2)cc1 [NVP-AUY922]
IC50 [1, 13]: 3 to 50 nM
IC50 [3, 10]: 0.148 µM
% Max response ([3]; Table 4): −88%

CC[C@@H](C(=O)O)[C@@H]1O[C@@H]([C@@H](C)[C@H](O)[C@H](C)C(=O)[C@H](CC)[C@H]2O[C@]3(C=C[C@@H](O)[C@]4(CC[C@@](C)([C@H]5CC[C@](O)(CC)[C@H](C)O5)O4)O3)[C@H](C)C[C@@H]2C)[C@@H](C)C[C@@H]1C [Narasin]
IC50 [1, 13]: 3 to 50 nM
IC50 [3, 10]: 27 µM
% Max response ([3]; Table 4): −98%

COC(=O)C[C@](O)(CCCC(C)(C)O)C(=O)O[C@@H]1C(OC)=C[C@]23CCCN2CCc2cc4c(cc2[C@H]13)OCO4 [Omacetaxine]
IC50 [1, 11]: 83 nM
% Max response ([3]; Table 2): −27%
IC50 (μM) in HepG2 ([3]; Table 2): Curve not complete
% Max response ([3]; Table 4): −27%
IC50 (μM) in HepG2 cells ([3]; Table 4): Curve not complete

O=C1C(=O)c2ncccc2-c2cccnc21 [Phanquinone]
IC50 [1, 9]: 100 nM
% Max response ([3]; Table 4): 23%
IC50 (μM) in HepG2 cells ([3]; Table 4): Inactive

COc1ccc(C[C@H](N)C(=O)N[C@H]2[C@@H](O)[C@H](n3cnc4c(N(C)C)ncnc43)O[C@@H]2CO)cc1 [Puromycin]
IC50 [1, 9]: 1050 nM
IC50 [3, 10]: 11.8 µM
% Max response ([3]; Table 4): −71%

CN(C)C(=S)SSC(=S)N(C)C [Thiram]
% Max response ([3]; Table 4): 23%
IC50 (μM) in HepG2 cells ([3]; Table 4): Inactive

CC(=O)Nc1cccc(-n2c(=O)n(C3CC3)c(=O)c3c(Nc4ccc(I)cc4F)n(C)c(=O)c(C)c32)c1 [Trametinib]
% Max response ([3]; Table 4): 14%
IC50 (μM) in HepG2 cells ([3]; Table 4): Inactive

COCCn1c2c([n+](Cc3cnccn3)c1C)C(=O)c1ccccc1C2=O [YM155]
IC50 [1, 9]: 372 nM
IC50 [3, 10]: 4.69 µM
% Max response ([3]; Table 4): −92%
